Assay results published in patent publication US8669249B2, “Poly (ADP-ribose) polymerase (PARP) inhibitors” (Takeda Pharmaceutical Company Limited, priority 2009, dated 2014).

target: T1, catalytic domain of Human PARP (Homo sapiens, UniProt P09874); assay: Biacore surface plasmon resonance affinity assay; assay type: binding; conditions: pKD=-log10 KD, KD in mol/L; Biacore T100, 25° C.; read-out: pKD (converted)
T1 construct: The catalytic domain of Human PARP was cloned and prepared; made in house
T1 sequence (P09874 788-1014 limits assumed): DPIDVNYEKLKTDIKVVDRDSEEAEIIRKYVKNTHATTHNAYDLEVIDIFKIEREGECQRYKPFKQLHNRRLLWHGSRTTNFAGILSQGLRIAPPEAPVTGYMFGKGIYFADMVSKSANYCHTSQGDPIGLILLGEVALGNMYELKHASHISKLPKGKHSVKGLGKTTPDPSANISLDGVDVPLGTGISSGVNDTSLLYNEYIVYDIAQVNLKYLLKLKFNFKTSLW
Procedure, shortened: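 Human PARP catalytic domain amine-coupled to CM5 chip; compounds run as 2-fold series in HBS-P with 1% DMSO, 0.5 mM TCEP, 5 mM MgCl2.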

Structure (SMILES) | Kd [µM]
CNC(=O)c1ccc(-c2ccc3c(c2)NC(=O)C(C)O3)cc1 (stereo not drawn) [Compound 151, N-Methyl-4-(2-methyl-3-oxo-3,4-dihydro-2H-benzo[b][1,4]oxazin-6-yl)benzamide] | > 10
CC(=O)Nc1ccc(-c2ccc3c(c2)NC(=O)C(C)O3)cc1 (stereo not drawn) [Compound 155, N-(4-(2-Methyl-3-oxo-3,4-dihydro-2H-benzo[b][1,4]oxazin-6-yl)phenyl)acetamide] | > 10
CC1Oc2ccc(CN3CCN(CC(=O)O)CC3)cc2NC1=O (stereo not drawn) [Compound 168, 2-(4-((2-Methyl-3-oxo-3,4-dihydro-2H-benzo[b][1,4]oxazin-6-yl)methyl)piperazin-1-yl)acetic acid] | ≥ 100
CC1Oc2ccc(CN3CCC(CC(=O)O)CC3)cc2NC1=O (stereo not drawn) [Compound 172, 2-(1-((2-Methyl-3-oxo-3,4-dihydro-2H-benzo[b][1,4]oxazin-6-yl)methyl)piperidin-4-yl)acetic acid] | > 10
C=CCNC(=O)CN1CCN(Cc2ccc3c(c2)NC(=O)C(C)O3)CC1 (stereo not drawn) [Compound 174, N-Allyl-2-(4-((2-methyl-3-oxo-3,4-dihydro-2H-benzo[b][1,4]oxazin-6-yl)methyl)piperazin-1-yl)acetamide] | 1.26 to 10
CC(C)NC(=O)CN1CCN(Cc2ccc3c(c2)NC(=O)C(C)O3)CC1 (stereo not drawn) [Compound 179, N-Isopropyl-2-(4-((2-methyl-3-oxo-3,4-dihydro-2H-benzo[b][1,4]oxazin-6-yl)methyl)piperazin-1-yl)acetamide] | > 10
CC1Oc2ccc(CN3CCN(CC(=O)NS(C)(=O)=O)CC3)cc2NC1=O (stereo not drawn) [Compound 181, 2-(4-((2-Methyl-3-oxo-3,4-dihydro-2H-benzo[b][1,4]oxazin-6-yl)methyl)piperazin-1-yl)-N-(methylsulfonyl)acetamide] | > 10
CC1Oc2ccc(CCCO)cc2NC1=O (stereo not drawn) [Compound 188, 6-(3-Hydroxypropyl)-2-methyl-2H-benzo[b][1,4]oxazin-3(4H)-one] | > 10
CNC(=O)OCCCc1ccc2c(c1)NC(=O)C(C)O2 (stereo not drawn) [Compound 189, 3-(2-Methyl-3-oxo-3,4-dihydro-2H-benzo[b][1,4]oxazin-6-yl)propyl methylcarbamate] | > 10
CCC1Oc2ccc(CN3CC=C(c4ccc(Cl)cc4)CC3)cc2NC1=O (stereo not drawn) [Compound 193, 6-((4-(4-Chlorophenyl)-5,6-dihydropyridin-1(2H)-yl)methyl)-2-ethyl-2H-benzo[b][1,4]oxazin-3(4H)-one] | ≥ 100
CCC1Oc2ccc(CN3CCN(c4ccncc4)CC3)cc2NC1=O (stereo not drawn) [Compound 195, 2-Ethyl-6-((4-(pyridin-4-yl)piperazin-1-yl)methyl)-2H-benzo[b][1,4]oxazin-3(4H)-one] | ≥ 100
CCC1Oc2ccc(CN3CCC(c4nc5ccccc5[nH]4)CC3)cc2NC1=O (stereo not drawn) [Compound 196, 6-((4-(1H-Benzo[d]imidazol-2-yl)piperidin-1-yl)methyl)-2-ethyl-2H-benzo[b][1,4]oxazin-3(4H)-one] | ≥ 100
CCC1Oc2ccc(CN3CCC(c4ccccc4N)CC3)cc2NC1=O (stereo not drawn) [Compound 198, 6-((4-(2-Aminophenyl)piperidin-1-yl)methyl)-2-ethyl-2H-benzo[b][1,4]oxazin-3(4H)-one] | 12.6 to 79.4
CC1Oc2cc(CN3CC=C(c4ccc(Cl)cc4)CC3)ccc2NC1=O (stereo not drawn) [Compound 199, 7-((4-(4-Chlorophenyl)-5,6-dihydropyridin-1(2H)-yl)methyl)-2-methyl-2H-benzo[b][1,4]oxazin-3(4H)-one] | ≥ 100
CC1Oc2cc(CN3CCC(c4ccc(Cl)cc4)CC3)ccc2NC1=O (stereo not drawn) [Compound 200, 7-((4-(4-Chlorophenyl)piperidin-1-yl)methyl)-2-methyl-2H-benzo[b][1,4]oxazin-3(4H)-one] | 12.6 to 79.4
CC1Oc2cc(CN3CC=C(c4ccc(F)cc4)CC3)ccc2NC1=O (stereo not drawn) [Compound 201, 7-((4-(4-Fluorophenyl)-5,6-dihydropyridin-1(2H)-yl)methyl)-2-methyl-2H-benzo[b][1,4]oxazin-3(4H)-one] | ≥ 100
CC1Oc2cc(CN3CCN(c4ccncc4)CC3)ccc2NC1=O (stereo not drawn) [Compound 202, 2-Methyl-7-((4-(pyridin-4-yl)piperazin-1-yl)methyl)-2H-benzo[b][1,4]oxazin-3(4H)-one] | ≥ 100
CC1Oc2cc(CN3CCC(c4nc5ccccc5[nH]4)CC3)ccc2NC1=O (stereo not drawn) [Compound 203, 7-((4-(1H-Benzo[d]imidazol-2-yl)piperidin-1-yl)methyl)-2-methyl-2H-benzo[b][1,4]oxazin-3(4H)-one] | ≥ 100
CC1Oc2cc(CN3CCN(c4ccccc4O)CC3)ccc2NC1=O (stereo not drawn) [Compound 209, 7-((4-(2-Hydroxyphenyl)piperazin-1-yl)methyl)-2-methyl-2H-benzo[b][1,4]oxazin-3(4H)-one] | 12.6 to 79.4
CC1Oc2cc(CN3CCC(c4ccc(C(=O)O)cc4)CC3)ccc2NC1=O (stereo not drawn) [Compound 210, 4-(1-((2-Methyl-3-oxo-3,4-dihydro-2H-benzo[b][1,4]oxazin-7-yl)methyl)piperidin-4-yl)benzoic acid] | 12.6 to 79.4
CC1Oc2ccc(CN3CCC(c4ccc(C(=O)O)cc4)CC3)cc2NC1=O (stereo not drawn) [Compound 216, 4-(1-((2-Methyl-3-oxo-3,4-dihydro-2H-benzo[b][1,4]oxazin-6-yl)methyl)piperidin-4-yl)benzoic acid] | 1.26 to 10
CC1Oc2ccc(CN3CCN(c4cccc(C(F)(F)F)c4)CC3)cc2NC1=O (stereo not drawn) [Compound 221, 2-Methyl-6-((4-(3-(trifluoromethyl)phenyl)piperazin-1-yl)methyl)-2H-benzo[b][1,4]oxazin-3(4H)-one] | 1.26 to 10
CC1Oc2ccc(CN3Cc4ccc(F)cc4C3)cc2NC1=O (stereo not drawn) [Compound 241, 6-((5-Fluoroisoindolin-2-yl)methyl)-2-methyl-2H-benzo[b][1,4]oxazin-3(4H)-one] | ≤ 0.01
CC(=O)Nc1ccc2c(c1)CN(Cc1ccc3c(c1)NC(=O)C(C)O3)C2 (stereo not drawn) [Compound 242, N-(2-((2-Methyl-3-oxo-3,4-dihydro-2H-benzo[b][1,4]oxazin-6-yl)methyl)isoindolin-5-yl)acetamide] | 1.26 to 10

Further lines, results first:

Kd [µM] | Structure (SMILES)
> 10 | CONC(=O)c1ccc(-c2ccc3c(c2)NC(=O)C(C)O3)cc1 (stereo not drawn) [Compound 152, N-Methoxy-4-(2-methyl-3-oxo-3,4-dihydro-2H-benzo[b][1,4]oxazin-6-yl)benzamide]
> 10 | CC1Oc2ccc(-c3ccc(C(=O)NC4CCCCC4)cc3)cc2NC1=O (stereo not drawn) [Compound 153, N-Cyclohexyl-4-(2-methyl-3-oxo-3,4-dihydro-2H-benzo[b][1,4]oxazin-6-yl)benzamide]
> 10 | CC1Oc2ccc(-c3ccc(C(=O)N4CCN(C)CC4)cc3)cc2NC1=O (stereo not drawn) [Compound 154, 2-Methyl-6-(4-(4-methylpiperazine-1-carbonyl)phenyl)-2H-benzo[b][1,4]oxazin-3(4H)-one]
1.26 to 10 | CC(C)CNC(=O)CN1CCN(Cc2ccc3c(c2)NC(=O)C(C)O3)CC1 (stereo not drawn) [Compound 173, N-Isobutyl-2-(4-((2-methyl-3-oxo-3,4-dihydro-2H-benzo[b][1,4]oxazin-6-yl)methyl)piperazin-1-yl)acetamide]
> 10 | CCCNC(=O)CN1CCN(Cc2ccc3c(c2)NC(=O)C(C)O3)CC1 (stereo not drawn) [Compound 175, 2-(4-((2-Methyl-3-oxo-3,4-dihydro-2H-benzo[b][1,4]oxazin-6-yl)methyl)piperazin-1-yl)-N-propylacetamide]
> 10 | CC1Oc2ccc(CN3CCN(CC(=O)NC4CC4)CC3)cc2NC1=O (stereo not drawn) [Compound 176, N-Cyclopropyl-2-(4-((2-methyl-3-oxo-3,4-dihydro-2H-benzo[b][1,4]oxazin-6-yl)methyl)piperazin-1-yl)acetamide]
> 10 | COCCNC(=O)CN1CCN(Cc2ccc3c(c2)NC(=O)C(C)O3)CC1 (stereo not drawn) [Compound 177, N-(2-Methoxyethyl)-2-(4-((2-methyl-3-oxo-3,4-dihydro-2H-benzo[b][1,4]oxazin-6-yl)methyl)piperazin-1-yl)acetamide]
> 10 | CCNC(=O)CN1CCN(Cc2ccc3c(c2)NC(=O)C(C)O3)CC1 (stereo not drawn) [Compound 178, N-Ethyl-2-(4-((2-methyl-3-oxo-3,4-dihydro-2H-benzo[b][1,4]oxazin-6-yl)methyl)piperazin-1-yl)acetamide]
> 10 | CC1Oc2ccc(CN3CCN(CC(=O)NCC4CC4)CC3)cc2NC1=O (stereo not drawn) [Compound 180, N-(Cyclopropylmethyl)-2-(4-((2-methyl-3-oxo-3,4-dihydro-2H-benzo[b][1,4]oxazin-6-yl)methyl)piperazin-1-yl)acetamide]
12.6 to 79.4 | CNC(=O)CC1CCN(Cc2ccc3c(c2)NC(=O)C(C)O3)CC1 (stereo not drawn) [Compound 182, N-Methyl-2-(1-((2-methyl-3-oxo-3,4-dihydro-2H-benzo[b][1,4]oxazin-6-yl)methyl)piperidin-4-yl)acetamide]
≥ 100 | CCC1Oc2ccc(CN3CCC(c4ccc(Cl)cc4)CC3)cc2NC1=O (stereo not drawn) [Compound 194, 6-((4-(4-Chlorophenyl)piperidin-1-yl)methyl)-2-ethyl-2H-benzo[b][1,4]oxazin-3(4H)-one]
12.6 to 79.4 | CC1Oc2cc(CN3CCC(c4ccccc4N)CC3)ccc2NC1=O (stereo not drawn) [Compound 204, 7-((4-(2-aminophenyl)piperidin-1-yl)methyl)-2-methyl-2H-benzo[b][1,4]oxazin-3(4H)-one]
≥ 100 | CC1Oc2ccc(CN3CCC(c4ccccc4N)CC3)cc2NC1=O (stereo not drawn) [Compound 211, 6-((4-(2-Aminophenyl)piperidin-1-yl)methyl)-2-methyl-2H-benzo[b][1,4]oxazin-3(4H)-one]
≥ 100 | COC(=O)c1cccc(C2CCN(Cc3ccc4c(c3)NC(=O)C(C)O4)CC2)c1 (stereo not drawn) [Compound 212, Methyl 3-(1-((2-methyl-3-oxo-3,4-dihydro-2H-benzo[b][1,4]oxazin-6-yl)methyl)piperidin-4-yl)benzoate]
≥ 100 | CC1Oc2ccc(CN3CCC(c4cccc(C(=O)O)c4)CC3)cc2NC1=O (stereo not drawn) [Compound 215, 3-(1-((2-Methyl-3-oxo-3,4-dihydro-2H-benzo[b][1,4]oxazin-6-yl)methyl)piperidin-4-yl)benzoic acid]
